The source made the active and inactive calls. The calls are words filed in the database; no cut-off is given here.
Assays:
[1] = tested on: Receptor-type tyrosine-protein kinase FLT3 (Homo sapiens), P36888 [UNDEFINED MUTATION]; format: cell-based; settings: BaF3, dose lower […], dose upper 2000.0 nM, time 2.0 hrs
[2] = tested on: MV4-11; format: functional, Homo sapiens; settings: dose 2000 nM; time 24 hrs
[3] = tested on: Receptor-type tyrosine-protein kinase FLT3 (Homo sapiens), P36888 [UNDEFINED MUTATION]; assay: Inhibition of FLT3-ITD mutant (unknown origin) expressed in mouse BaF3 cells assessed as inhibition of ERK1/2 phosphorylation at Thr202/Tyr204 residues at 16 to 2000 nM incubated for 2 hrs by immunoblot analysis; format: cell-based; settings: dose lower […], dose upper 2000.0 nM
[4] = tested on: MV4-11; assay: Induction of cell cycle arrest in human MV4-11 cells assessed as proportion of cells at S phase at 3.2 nM incubated for 24 hrs by PI staining based flow cytometry (reference value: 25.97%); format: functional
[5] = tested on: HL-60; assay: Induction of cell cycle arrest in human HL-60 cells assessed as proportion of cells at G2/M phase at 3.2 nM incubated for 24 hrs by PI staining based flow cytometry (reference value: 14.52%); format: functional
[6] = tested on: Receptor-type tyrosine-protein kinase FLT3 (Homo sapiens), P36888 [UNDEFINED MUTATION]; assay: Inhibition of FLT3-ITD mutant (unknown origin) expressed in mouse BaF3 cells assessed as inhibition of STAT5 phosphorylation at Tyr694 residue at 16 to 2000 nM incubated for 2 hrs by immunoblot analysis; format: cell-based; settings: dose lower […], dose upper 2000.0 nM
[7] = tested on: HL-60; assay: Induction of cell cycle arrest in human HL-60 cells assessed as proportion of cells at G1 phase at 3.2 nM incubated for 24 hrs by PI staining based flow cytometry (reference value: 49.36%); format: functional
[8] = tested on: HL-60; assay: Induction of cell cycle arrest in human HL-60 cells assessed as proportion of cells at subG1 phase at 3.2 nM incubated for 24 hrs by PI staining based flow cytometry (reference value: 6.94%); format: functional
[9] = tested on: HL-60; assay: Induction of cell cycle arrest in human HL-60 cells assessed as proportion of cells at G2/M phase at 400 nM incubated for 24 hrs by PI staining based flow cytometry (reference value: 14.52%); format: functional
[10] = tested on: K562; assay: cells; settings: Homo sapiens, K562, 72 h
Description: Antiproliferative activity against FLT3-independent human K562 cells assessed as inhibition of cell growth incubated for 72 hrs by resazurin dye based fluorescence analysis

[11] = tested on: MV4-11; assay: Induction of cell cycle arrest in human MV4-11 cells assessed as proportion of cells at S phase at 80 nM incubated for 24 hrs by PI staining based flow cytometry (reference value: 25.97%); format: functional
[12] = molecular target: High affinity nerve growth factor receptor (Homo sapiens) (UniProt P04629); assay: Binding affinity to human TrkA (441 to 760 residues) expressed in baculovirus-infected Sf21 cells assessed as residual activity using poly(Glu:Tyr) as substrate in presence of ATP and [gamma-33P]ATP incubated for 30 mins by MRC Protein Phoshorylation and Ubiquitylation Unit based Express Panel assay
High affinity nerve growth factor receptor (Homo sapiens), sequence (P04629 33-796 limits assumed): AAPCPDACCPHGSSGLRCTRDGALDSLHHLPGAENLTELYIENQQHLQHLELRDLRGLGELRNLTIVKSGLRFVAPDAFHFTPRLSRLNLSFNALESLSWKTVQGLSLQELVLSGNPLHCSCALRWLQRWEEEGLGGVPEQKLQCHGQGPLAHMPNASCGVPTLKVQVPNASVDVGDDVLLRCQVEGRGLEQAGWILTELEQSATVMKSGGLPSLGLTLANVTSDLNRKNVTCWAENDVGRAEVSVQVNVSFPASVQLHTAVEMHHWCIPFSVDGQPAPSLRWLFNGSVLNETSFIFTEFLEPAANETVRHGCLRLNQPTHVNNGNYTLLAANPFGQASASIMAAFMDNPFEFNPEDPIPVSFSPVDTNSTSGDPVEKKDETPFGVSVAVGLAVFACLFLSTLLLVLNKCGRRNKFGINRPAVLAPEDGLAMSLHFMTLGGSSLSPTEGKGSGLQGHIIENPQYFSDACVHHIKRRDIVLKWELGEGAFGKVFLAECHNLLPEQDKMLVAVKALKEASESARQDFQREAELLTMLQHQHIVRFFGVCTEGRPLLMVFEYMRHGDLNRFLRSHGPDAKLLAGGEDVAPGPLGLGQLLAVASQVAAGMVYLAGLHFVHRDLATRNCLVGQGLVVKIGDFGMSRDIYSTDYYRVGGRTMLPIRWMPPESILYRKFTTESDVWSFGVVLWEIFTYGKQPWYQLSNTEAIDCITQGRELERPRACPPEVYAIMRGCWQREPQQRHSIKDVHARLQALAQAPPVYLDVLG

[13] = tested on: MV4-11; format: functional, Homo sapiens; settings: dose 3.2 nM; time 24 hrs
[14] = tested on: HL-60; assay: Induction of cell cycle arrest in human HL-60 cells assessed as proportion of cells at subG1 phase at 400 nM incubated for 24 hrs by PI staining based flow cytometry (reference value: 6.94%); format: functional
[15] = molecular target: Receptor-type tyrosine-protein kinase FLT3 (Homo sapiens, UniProt P36888, ITD); assay: biochemical; format: cell-based, Sf9
Receptor-type tyrosine-protein kinase FLT3, sequence (P36888 whole entry, looked up, change not shown): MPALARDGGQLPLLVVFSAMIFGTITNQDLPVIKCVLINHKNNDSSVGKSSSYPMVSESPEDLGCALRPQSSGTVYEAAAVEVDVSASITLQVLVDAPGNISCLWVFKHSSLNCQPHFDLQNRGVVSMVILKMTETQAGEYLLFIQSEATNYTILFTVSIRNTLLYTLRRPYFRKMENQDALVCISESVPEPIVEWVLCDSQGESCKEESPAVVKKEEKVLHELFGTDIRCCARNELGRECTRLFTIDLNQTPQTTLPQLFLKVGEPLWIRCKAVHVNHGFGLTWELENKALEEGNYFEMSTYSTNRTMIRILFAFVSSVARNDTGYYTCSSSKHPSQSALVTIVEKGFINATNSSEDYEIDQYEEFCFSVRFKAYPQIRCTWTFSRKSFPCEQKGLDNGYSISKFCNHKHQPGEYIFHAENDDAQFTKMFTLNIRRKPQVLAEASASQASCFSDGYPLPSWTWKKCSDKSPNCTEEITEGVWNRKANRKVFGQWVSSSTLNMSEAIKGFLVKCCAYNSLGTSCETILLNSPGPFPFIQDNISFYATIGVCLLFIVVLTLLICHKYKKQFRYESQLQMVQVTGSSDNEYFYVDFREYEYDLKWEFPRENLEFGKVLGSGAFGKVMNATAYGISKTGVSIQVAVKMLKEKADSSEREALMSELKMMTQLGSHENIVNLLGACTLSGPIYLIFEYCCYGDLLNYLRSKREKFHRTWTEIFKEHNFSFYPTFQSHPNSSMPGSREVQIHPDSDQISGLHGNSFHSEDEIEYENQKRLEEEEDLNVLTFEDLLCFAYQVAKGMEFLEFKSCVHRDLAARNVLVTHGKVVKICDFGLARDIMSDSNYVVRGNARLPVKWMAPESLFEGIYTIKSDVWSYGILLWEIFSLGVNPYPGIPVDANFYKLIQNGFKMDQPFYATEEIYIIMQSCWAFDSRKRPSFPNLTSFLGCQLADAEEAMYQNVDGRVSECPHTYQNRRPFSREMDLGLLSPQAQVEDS

[16] = tested on: MV4-11; assay: Induction of cell cycle arrest in human MV4-11 cells assessed as proportion of cells at subG1 phase at 2000 nM incubated for 24 hrs by PI staining based flow cytometry (reference value: 10.44%); format: functional
[17] = tested on: MV4-11; assay: Induction of cell cycle arrest in human MV4-11 cells assessed as proportion of cells at G2/M phase at 16 nM incubated for 24 hrs by PI staining based flow cytometry (reference value: 10%); format: functional
[18] = tested on: MV4-11; assay: Induction of cell cycle arrest in human MV4-11 cells assessed as proportion of cells at subG1 phase at 400 nM incubated for 24 hrs by PI staining based flow cytometry (reference value: 10.44%); format: functional
[19] = tested on: BaF3; assay: cells; settings: Mus musculus, BaF3, 72 h
[20] = tested on: MV4-11; assay: Induction of cell cycle arrest in human MV4-11 cells assessed as proportion of cells at subG1 phase at 16 nM incubated for 24 hrs by PI staining based flow cytometry (reference value: 10.44%); format: functional
[21] = tested on: MV4-11; assay: Antiproliferative activity against human MV4-11 cells harboring homozygous FLT3-ITD mutant assessed as inhibition of cell growth incubated for 72 hrs by resazurin dye based fluorescence analysis; format: functional
[22] = tested on: HL-60; assay: Induction of cell cycle arrest in human HL-60 cells assessed as proportion of cells at S phase at 16 nM incubated for 24 hrs by PI staining based flow cytometry (reference value: 36.12%); format: functional
[23] = tested on: MV4-11; assay: Induction of cell cycle arrest in human MV4-11 cells assessed as proportion of cells at S phase at 2000 nM incubated for 24 hrs by PI staining based flow cytometry (reference value: 25.97%); format: functional
[24] = tested on: HL-60; assay: Induction of cell cycle arrest in human HL-60 cells assessed as proportion of cells at G1 phase at 16 nM incubated for 24 hrs by PI staining based flow cytometry (reference value: 49.36%); format: functional
[25] = tested on: MV4-11; assay: Induction of cell cycle arrest in human MV4-11 cells assessed as proportion of cells at S phase at 400 nM incubated for 24 hrs by PI staining based flow cytometry (reference value: 25.97%); format: functional
[26] = tested on: HL-60; assay: Induction of cell cycle arrest in human HL-60 cells assessed as proportion of cells at S phase at 2000 nM incubated for 24 hrs by PI staining based flow cytometry (reference value: 36.12%); format: functional
[27] = tested on: MOLM-13; assay: cells; settings: Homo sapiens, MOLM-13, 72 h
[28] = tested on: HL-60; assay: Induction of cell cycle arrest in human HL-60 cells assessed as proportion of cells at subG1 phase at 16 nM incubated for 24 hrs by PI staining based flow cytometry (reference value: 6.94%); format: functional
[29] = tested on: HL-60; assay: Induction of cell cycle arrest in human HL-60 cells assessed as proportion of cells at subG1 phase at 2000 nM incubated for 24 hrs by PI staining based flow cytometry (reference value: 6.94%); format: functional
[30] = Selectivity ratio of GI50 for antiproliferative activity against human MV4-11 cells to GI50 for antiproliferative activity against human MOLM-13 cells
[31] = tested on: BaF3; assay: cells; settings: Mus musculus, BaF3, 72 h; remark: listed apart in the source
Description: Antiproliferative activity against mouse BaF3 cells assessed as inhibition of cell growth incubated for 72 hrs by resazurin dye based fluorescence analysis

[32] = tested on: BaF3; assay: cells; settings: Mus musculus, BaF3, 72 h; remark: listed apart in the source
[33] = tested on: MV4-11; assay: Induction of cell cycle arrest in human MV4-11 cells assessed as proportion of cells at G2/M phase at 2000 nM incubated for 24 hrs by PI staining based flow cytometry (reference value: 10%); format: functional
[34] = tested on: HL-60; assay: Induction of cell cycle arrest in human HL-60 cells assessed as proportion of cells at G2/M phase at 2000 nM incubated for 24 hrs by PI staining based flow cytometry (reference value: 14.52%); format: functional
[35] = tested on: HL-60; assay: Induction of cell cycle arrest in human HL-60 cells assessed as proportion of cells at G1 phase at 2000 nM incubated for 24 hrs by PI staining based flow cytometry (reference value: 49.36%); format: functional
[36] = tested on: Receptor-type tyrosine-protein kinase FLT3 (Homo sapiens), P36888 [UNDEFINED MUTATION]; format: cell-based; settings: BaF3, dose lower […], dose upper 2000.0 nM, time 2.0 hrs; remark: listed apart in the source

Receptor-type tyrosine-protein kinase FLT3 (Homo sapiens), P36888 [UNDEFINED MUTATION], sequence (P36888 whole entry, looked up, change not shown): as above

In the case of `COc1ccc(NC(=O)Nc2nnc(Sc3ncnc4oc(-c5ccccc5)cc34)s2)cc1`, the inhibition [1] is reported as “Active”, the Activity [2] is reported as 93.13% and the inhibition [3] is reported as “Active”. The Activity [4] was 20.86%, the Activity [5] was 13.04% and the inhibition [6] was “Active”. The Activity [7] was 49.95%, the Activity [8] was 7.88% and the Activity [9] was 13.74%. It also gave a GI50 [10] greater than 10 µM, an Activity [11] of 3.85% and an Activity [12] of less than 50%. The Activity [13] was 72.92%, the Activity [14] was 7.9% and the IC50 [15] was 0.031 µM. For the same compound, the Activity [16] was 38.33%, the Activity [17] was 2.63% and the Activity [18] was 32.95%. The GI50 [19] was 0.277 µM, the Activity [20] was 16.42% and the GI50 [21] was 0.105 µM. It also gave an Activity [22] of 37.68%, an Activity [23] of 5.78% and an Activity [24] of 48.76%. For the same compound, the Activity [25] was 4.48%, the Activity [26] was 37.26% and the GI50 [27] was 0.063 µM. It also gave an Activity [28] of 7.48%, an Activity [29] of 7.81% and a RatioGI50 [30] of 100. The GI50 [31] was greater than 10 µM, the GI50 [32] was 0.054 µM and the Activity [33] was 1.1%. For the same compound, the Activity [34] was 13.94%, the Activity [35] was 48.8% and the inhibition [36] was “Active”.
